From US9622997B2, “Methods for treating insomnia” (Lynn Health Science Institute, Inc., priority 2012, dated 2017)
Marks after values point to notes of the source that are not given here.

Test system: healthy subjects subjected to a transient insomnia protocol
Assay: Transient insomnia protocol (2 hour phase advance), double blind cross-over, overnight PSG and morning self-report
Assay type: in vivo, human
Text: Twenty-four (24) healthy subjects aged 18-65 years (inclusive) with no insomnia were recruited for this study. […] Individuals were also excluded if they had excessive daytime sleepiness indicated by an Epworth Sleepiness Score (ESS) of >9 or a chronic sleep disturbance indicated by a Pittsburgh Sleep Questionnaire Inventory (PSQI) score of >5. Shift workers or subjects with irregular sleep schedules were excluded. Women of child-bearing potential who used medically acceptable methods of contraception were allowed to participate. Subjects were excluded if they had any of the following: BMI≧30; symptoms of gastroesophageal reflux such as heartburn on a regular basis; history of allergic reaction or hyper-sensitivity to benzodiazepines or CNS depressants; or evidence of any clinically significant medical abnormality or chronic disease indicated on laboratory screen or physical exam. Subjects were also excluded if they had any of the following: a history of alcohol or drug abuse; consume >2 alcoholic beverages on a single day and >14 beverages weekly; or >5 cigarettes a day and could not forego smoking for up to 14 hours while in the sleep lab. Participants abstained from over-the-counter medications within 7 days of the polysomnographic (hereinafter “PSG”) evaluation (except accepted birth control medication, NSAIDS/acetaminophen for infrequent pain not considered clinically significant). Participants abstained from alcohol for 24 hours and caffeine for 6 hours prior to each PSG evaluation. Eligible participants were required to report normal sleep patterns during the week before each PSG defined as a bedtime between 21:00 and 24:00 on at least 5 of 7 consecutive nights, with reported sleep duration between 7-9 hours, and no more than 2 naps a week.
The present study was a single-site study approved by Aspire Institutional Review Board. The study design was a double blind cross-over study. Subjects gave written informed consent prior to any study-related procedures. The study consisted of a screening session and two overnight PSGs. The treatments consisted of baclofen 20 mg and placebo. The screening session consisted of a medical screening visit to determine eligibility and safety for each subject. Eligible subjects were randomized into two treatment sequences based on a random permutation algorithm. One treatment sequence received baclofen 20 mg on the night of the first PSG, then placebo on the night of the second PSG. The other treatment sequence received placebo on the night of the first PSG, then baclofen 20 mg on the night of the second PSG. Subjects were given a 7 day sleep diary to complete immediately prior to the first sleep study. Subjects were given a second 7 day sleep diary to complete immediately prior to the second sleep study. Lights out was determined as two hours earlier than the subject's median habitual bedtime indicated in the diary prior to each PSG. Study drug (baclofen 20 mg or placebo) was administered 90 minutes prior to lights out.
On the PSG nights, respiratory effort and airflow, oxygen saturation, leg and chin EMGs were recorded in addition to the routine PSG measures to exclude subjects with sleep-related breathing disorders and periodic limb movement disorder. […] PSG measures consisted of the following: wake after sleep onset (WASO), total sleep time (TST), sleep onset latency (SOL), sleep efficiency (SE), percent sleep stage 1, percent sleep stage 2, percent sleep stages 3 and 4 combined, percent sleep REM. Self-report measures consisted of the following: subjective TST (sTST), subjective SOL (sSOL), subjective number of awakenings from sleep (sNAS), subjective sleep quality (sSQ). All PSGs were analyzed by one of the authors blinded to the treatment groups. […]

[1] = PSG measure, percentage of TST, baclofen 20 mg
[2] = PSG measure, baclofen 20 mg 90 minutes prior to lights out, n=20
[3] = baclofen 20 mg vs placebo, not significant
[4] = baclofen 20 mg vs placebo, p < 0.01
[5] = baclofen 20 mg vs placebo, p < 0.05
[6] = self-report, morning questionnaire, baclofen 20 mg

NCC(CC(=O)O)c1ccc(Cl)cc1 (stereo not drawn) [Baclofen, 4-amino-3-(4-chlorophenyl)-butanoic acid]
REM [1]: 24.1 ± 1.3%
Stage 1 [1]: 2.3 ± 0.3%
Stage 2 [1]: 58.9 ± 2.0%
Stage 3/4 [1]: 14.7 ± 1.4%
SE [2]: 90.6 ± 1.2%
SOL [2]: 19.4 ± 3.8 min
TST [2]: 435.4 ± 5.8 min
WASO [2]: 25.6 ± 4.0 min
SOL Absolute Change [3]: -0.4 min
sSOL Absolute Change [3]: -1.0 min
sTST Absolute Change [3]: 0.3 h
REM Absolute Change (baclofen 20 mg vs placebo, not significant (p=0.067)): 3.5%
Stage 2 Absolute Change (baclofen 20 mg vs placebo, not significant (p=0.092)): −3.9%
Stage 1 Absolute Change (baclofen 20 mg vs placebo, p < 0.001): −1.8*** %
TST Absolute Change [4]: 27.7** min
sNAS Absolute Change [4]: −1.3** #
Stage 3/4 Absolute Change [5]: 2.7* %
WASO Absolute Change [5]: −28.4* min
sSQ Absolute Change [5]: −0.5* scale 1-4
baclofen data better than zolpidem (decrease in WASO, increase in SE) (baclofen 20 mg vs zolpidem 10 mg (WASO 9.4 min, SE 3.7%), 2 hr phase advance): 2-4 fold
sSOL [6]: 25.0 ± 4.1 min
sTST [6]: 7.1 ± 0.2 h
sNAS (self-report, number of awakenings, baclofen 20 mg): 2.4 ± 0.4
sSQ (self-report, 1 = good, 2 = average, 3 = below average, 4 = poor, baclofen 20 mg): 1.9 ± 0.2 scale 1-4
TST (↑ increase compared to placebo, 20 mg, 2 hour phase-advance, current study): ↑ 27.7 min
SOL (↓ decrease compared to placebo, NS, 20 mg, 2 hour phase-advance, current study): ↓ 0.4^NS min
wake after sleep onset (WASO), change vs placebo (↓ decrease compared to placebo, 20 mg, 2 hour phase-advance, current study): ↓ 28.3 min
